Converted amounts (≈) assume the structure as drawn.
Columns and labels:
[1] = system: hERG; details: similar compounds listed by Pred-hERG/LabMol, Fig 9 and Fig 10, reference not given; cited from earlier work
[2] = Hemolytic assay (HRBC membrane stabilization, anti-inflammatory activity); type: cell-based, human; details: human, human red blood cells, 2% suspension, pH 7.4, 2% RBC, 1 hour 37°C; for hemolysis at 1 h, 100 ug/ml: Conc. 100 ug/ml; for hemolysis at 1 h, 200 ug/ml: Conc. 200 ug/ml; for hemolysis at 1 h, 400 ug/ml: Conc. 400 ug/ml; for hemolysis at 1 h, 600 ug/ml: Conc. 600 ug/ml; for hemolysis at 1 h, 800 ug/ml: Conc. 800 ug/ml; for hemolysis at 1 h, 1000 ug/ml: Conc. 1000 ug/ml
Procedure: (§1) The hemolysis essay of the synthesized compounds is summarized in Table 3 and Fig 4; the mean absorption rate of the samples, with isotonic solution Ab, and hemolysis % were calculated with a standard deviation. HRBC and membrane stabilization assay results provide valuable information about the potential anti-inflammatory effects of the newly synthesized pyrimidine carbonitrile derivatives. […] The results for the anti-inflammatory activity are in agreement and homogenous with those obtained from the antioxidant activity of the same compounds, as shown in Table 3. The interconnection between inflammation and oxidative stress plays a vital role in the induction of several chronic diseases, such as diabetes, rheumatoid arthritis, and inflammatory bowel disease—inflammation results in the release of inflammatory mediators and, subsequently, tissue damage. Oxidative stress occurs due to an imbalance between the production of the reactive oxygen species and the ability of the body to neutralize them. Several cellular mechanisms are involved in the anti-inflammatory activity of the tested compounds. […] The cellular mechanism of action was detected by suppression of myeloperoxidase and granulocyte superoxide formation. […] In addition, other mechanisms may explain the anti-inflammatory activity through the inhibitory effect on […] and lipo-oxygenase enzymes.
(§2) The hemolytic assay was performed using the method reported in [37, 40, 41]. Freshly collected human red blood cells were washed thrice with 150 mM NaCl (2500 rpm for 10 minutes). The plasma was removed, and the cells were suspended in phosphate buffer saline (pH 7.4) for 2% RBC concentration. Double-folded dilution concentrations (1000, 800, 600, 400, 200, 100, 50 μg/ml) of the compound were mixed with […] of RBC solutions, and the final reaction mixture volume was measured up to 1 ml by adding PBS. The reaction mixture was then placed in the water bath for 1 hour at 37°C. After incubation, the reaction mixture was centrifuged at 2500 rpm for 15 minutes. The supernatant was collected, and the optical density was measured at 541 nm, keeping the phosphate buffer saline blank. Deionized water was used as a positive control. The experiment was carried out in triplicate, and the mean ± SD was calculated.
(§3) Percentageofhemolysis=Absorbanceofsample−Absorbanceofblank×100/Absorbanceofpositivecontrol

[3] = DPPH radical scavenging method (antioxidant activity); details: for IC50ug/ml (DPPH scavenging): 0.1 mM DPPH in ethanol, 30 minutes, absorbance 517 nm, triplicate; for IC50: IC50 ug/ml converted with molecular wt
Procedure: The antioxidant activity of the newly synthesized compounds was evaluated using DPPH (2, 2-diphenyl-1-picrylhydrazyl (DPPH) assay). This assay measures the ability of a compound to neutralize the stable free radical DPPH by donating an electron or hydrogen atom. The results are illustrated in Table 2 and Fig 3. All the tests and analyses were undertaken in three replicates, and the results were averaged.
Different compounds’ free radical scavenging activity was measured by 1, 1- diphenyl-2-[…] (DPPH). In brief, a 0.1 mM solution of DPPH in ethanol was prepared. This solution (1 ml) was added to 3 ml. of the different compounds in ethanol at various concentrations (3.9, 7.8, 15.62, 31.25, 62.5, 125, 250, 500, 1000 μg/ml). Here, only those compounds solubilized in ethanol and their various concentrations were prepared by dilution. The mixture was shaken vigorously and allowed to stand at room temperature for 30 minutes. Then, absorbance was measured at 517 nm by using a spectrophotometer (UV-VIS Milton Roy). The reference standard compound used was ascorbic acid, and the experiment was done in triplicate. The IC 50 value of the sample, which is the concentration of sample required to inhibit 50% of the DPPH free radical, was calculated using the Log dose inhibition curve. The lower absorbance of the reaction mixture indicates higher free radical activity. The percent DPPH scavenging effect was calculated using the following equation: DPPH scavenging effect (%), or percent inhibition = A0 - A 1/ A0 × 100. A0 is the absorbance of the control reaction, and A1 is the absorbance in the presence of a test or standard sample [39].

[4] = system: human red blood cells; assay: Hemolytic assay (HRBC membrane stabilization, anti-inflammatory activity); type: cell-based; details: Conc. 100 ug/ml, 2% RBC, 1 hour 37°C
Procedure: as §1, §2, §3

Compound	hERG Blocker / Non-Blocker annotation of similar compounds [1]	hemolysis at 1 h, 100 ug/ml [2] [%]	hemolysis at 1 h, 200 ug/ml [2] [%]	hemolysis at 1 h, 400 ug/ml [2] [%]	hemolysis at 1 h, 600 ug/ml [2] [%]	hemolysis at 1 h, 800 ug/ml [2] [%]	IC50ug/ml (DPPH scavenging) [3] [µg/mL]	IC50 [3] [µM]	Hemolysis % [4]	hemolysis at 1 h, 1000 ug/ml [2] [%]
N#Cc1c(-c2ccccc2)cc(-c2ccccc2)nc1N=C1SC(=C2SC(c3ccccc3)=NN2c2ccccc2)C(=O)N1c1ccccc1 [CHEMBL3408393]	Blocker	–	–	–	–	–	–	–	–	–
CCOC(=O)C1=NN(c2ccccc2)C(=C2SC(=Nc3nc(-c4ccccc4)cc(-c4ccccc4)c3C#N)N(c3ccccc3)C2=O)S1 [CHEMBL3408395]	Blocker	–	–	–	–	–	–	–	–	–
N#CCSC1=NC(c2ccc(C#N)cc2)C(C#N)C(=O)N1 (centres unmarked) [Compound 3, 2-((Cyanomethyl)thio)-4-(4-cyanophenyl)-6-oxo-1,4,5,6-trtrahydropyrimidine-5-carbonitrile]	–	0.1	0.3	0.7	1.2	2.3	35.9 (≈ 122 µM)	122	–	–
N#Cc1c(-c2ccccc2)cc(-c2ccccc2)nc1N=C1SC(=C2SC(C(=O)Nc3ccccc3)=NN2c2ccccc2)C(=O)N1c1ccccc1 [CHEMBL3408396]	Blocker	–	–	–	–	–	–	–	–	–
CSC1=NC(c2ccc(C#N)cc2)C(C#N)C(=O)N1 (centres unmarked) [Compound 2, 4-(4-Cyanophenyl)-2-(methylthio)-6-oxo-1,4,5,6-tetrahydro pyrimidine-5-carbonitrile]	–	0	0.1	0.1	0.3	0.3	10.09 (≈ 37.3 µM)	–	no hemolysis	2.2
N#Cc1ccc(C2N=C3SCC(=O)N3C(=O)C2C#N)cc1 (centres unmarked) [Compound 6, 7-(4-Cyanophenyl)-3,5-dioxo-2,3,6,7-tetrahydro-5H-thiazolo[3,2-a]pyrimidine-6-carbonitrile]	–	2.1	3.1	4	4.6	12.8	46.69 (≈ 158 µM)	–	–	14.3
N#Cc1ccc(C2NC(=S)NC(=O)C2C#N)cc1 (centres unmarked) [Compound 1, 4-(4-cyanophenyl)-6-oxo-2-thioxohexahydropyrimidine-5-carbonitrile]	–	7.5	9.5	12	12.4	13.2	25.13 (≈ 98.1 µM)	98.1	–	13.9
N#Cc1ccc(C2N=C(NNc3ccccc3)NC(=O)C2C#N)cc1 (centres unmarked) [Compound 9, 4-(4-Cyanophenyl)-6-oxo-2-(2-phenylhydrazine)-1,4,5,6-tetrahydro pyrimidine-5-carbonitrile]	–	2.9	4.3	5	9	10	212.28 (≈ 643 µM)	643	–	14.4
N#Cc1ccc(C2N=C3SCC=C(N)N3C(=O)C2C#N)cc1 (centres unmarked) [Compound 5, 4-Amino-8-(4-cyanophenyl)-6-oxo-7,8-dihydro-2H,6H-pyrimido[2,1-b][1,3]thiazine-7-carbonitrile]	–	0.2	0.4	1.4	5.5	5.9	5.62 (≈ 18.2 µM)	18.2	–	7
N#Cc1ccc(C2N=C(Nc3nc4ccccc4s3)NC(=O)C2C#N)cc1 (centres unmarked) [Compound 8, 2-(Benzo[d]thiazol-2-ylamino)-4-(4-cyanophenyl)-6-oxo-1,4,5,6-tetrahydro pyrimidine-5-carbonitrile]	–	0	0.1	0.9	1.3	3	6.21 (≈ 16.7 µM)	16.7	no hemolysis	3.7
CC(=O)C1=NN(c2ccccc2)C(=C2SC(=Nc3nc(-c4ccccc4)cc(-c4ccccc4)c3C#N)N(c3ccccc3)C2=O)S1 [CHEMBL3408394]	Blocker	–	–	–	–	–	–	–	–	–
CC(=O)CSC1=NC(c2ccc(C#N)cc2)C(C#N)C(=O)N1 (centres unmarked) [Compound 4, 4-(4-Cyanophenyl)-6-oxo-2-((2-oxo-propyl)thio)-1,4,5,6-tetrahydro-pyrimidine-5-carbonitrile]	–	1.3	1.8	3.6	5.9	7.8	35.31 (≈ 113 µM)	113	–	9.3
N#Cc1c(-c2ccccc2)cc(-c2ccccc2)nc1N=c1sc(C(=O)Nc2ccccc2)nn1-c1ccccc1 [CHEMBL3408390]	Blocker	–	–	–	–	–	–	–	–	–
O=C1O[C@H]([C@@H](O)CO)C(O)=C1O [Ascorbic acid, reference compound]	–	–	–	–	–	–	4.63 (≈ 26.3 µM)	26.3	–	–
Cc1cc(C=C2SC(=Nc3ccccc3)NC2=O)c(C)n1-c1ccccc1 [CHEMBL599702]	Non-Blocker	–	–	–	–	–	–	–	–	–

From paper PMC12121771, “Innovation of eco-friendly TiO2 nano catalyst for new pyrimidine carbonitiriles candidates, assessed for significant antioxidant activity, anti-inflammatory effects, and by insilico studies” (PLOS One, 2025)
